The values below come from patent publication US10173982B2, “Picolinamides as fungicides” (Dow AgroSciences LLC, priority 2016, dated 2019).

Where two headings read alike, the source gives them in different places. Where only a bound is given, the exact number is not on record here.

What all share (type): in vivo
Assay [1] deals with Zymoseptoria tritici. Kind of assay: Fungicidal activity: leaf blotch of wheat (SEPTTR), percent disease control on wheat seedlings. The conditions noted are these: Zymoseptoria tritici, LV (low volume) activity at 121.5 g/H. As to the method: Technical grades of materials were dissolved in acetone, which were then mixed with nine volumes of water containing 110 ppm Triton X-100. The fungicide solutions were applied onto wheat seedlings using an automated booth sprayer to run-off. All sprayed plants were allowed to air dry prior to further handling. All fungicides were evaluated using the aforementioned method for their activity vs. all target diseases, unless stated otherwise. Wheat leaf blotch and brown rust activity were also evaluated using track spray applications, in which case the fungicides were formulated as EC formulations, containing 0.1% Trycol 5941 in the spray solutions. Wheat plants (variety Yuma) were grown from seed in a greenhouse in 50% mineral soil/50% soil-less Metro mix until the first leaf was fully emerged, with 7-10 seedlings per pot. These plants were inoculated with an aqueous spore suspension of Zymoseptoria tritici either prior to or after fungicide treatments. After inoculation the plants were kept in 100% relative humidity (one day in a dark dew chamber followed by two to three days in a lighted dew chamber at 20° C.) to permit spores to germinate and infect the leaf. The plants were then transferred to a greenhouse set at 20° C. for disease to develop. When disease symptoms were fully expressed on the 1st leaves of untreated plants, infection levels were assessed on a scale of 0 to 100 percent disease severity. Percent disease control was calculated using the ratio of disease severity on treated plants relative to untreated plants.

The test system of assay [2] is Puccinia triticina. Kind of assay: Fungicidal activity: wheat brown rust (PUCCRT), percent disease control on wheat seedlings. Particulars: Puccinia triticina, LV (low volume) activity at 121.5 g/H. As to the method: Technical grades of materials were dissolved in acetone, which were then mixed with nine volumes of water containing 110 ppm Triton X-100. The fungicide solutions were applied onto wheat seedlings using an automated booth sprayer to run-off. All sprayed plants were allowed to air dry prior to further handling. All fungicides were evaluated using the aforementioned method for their activity vs. all target diseases, unless stated otherwise. Wheat leaf blotch and brown rust activity were also evaluated using track spray applications, in which case the fungicides were formulated as EC formulations, containing 0.1% Trycol 5941 in the spray solutions. Wheat plants (variety Yuma) were grown from seed in a greenhouse in 50% mineral soil/50% soil-less Metro mix until the first leaf was fully emerged, with 7-10 seedlings per pot. These plants were inoculated with an aqueous spore suspension of Puccinia triticina either prior to or after fungicide treatments. After inoculation the plants were kept in a dark dew room at 22° C. with 100% relative humidity overnight to permit spores to germinate and infect the leaf. The plants were then transferred to a greenhouse set at 24° C. for disease to develop. Fungicide formulation, application and disease assessment followed the procedures as described in the Example A. Results of the evaluations are shown below in Table 4.

In assay [3] the test system is Phakopsora pachyrhizi. Kind of assay: Fungicidal activity: Asian soybean rust (PHAKPA), disease control on soybean seedlings. The conditions noted are these: High volume at 25 ppm. As to the method: Technical grades of materials were dissolved in acetone, which were then mixed with nine volumes of water containing 0.011% Tween 20. The fungicide solutions were applied onto soybean seedlings using an automated booth sprayer to run-off. All sprayed plants were allowed to air dry prior to further handling.
Soybean plants (variety Williams 82) were grown in soil-less Metro mix, with one plant per pot. Two weeks old seedlings were used for testing. Plants were inoculated either 3 days prior to or 1 day after fungicide treatments. Plants were incubated for 24 h in a dark dew room at 22° C. and 100% relative humidity then transferred to a growth room at 23° C. for disease to develop. Disease severity was assessed on the sprayed leaves.

Setting [4] is: 24 h, 1 Day Protectant, read-out: SEPTTR 1DP disease control rating.
Where [5] appears, read: 72 h, 3 Day Curative, read-out: SEPTTR 3DC disease control rating.
Where [6] appears, read: 24 h, 1 Day Protectant, read-out: PUCCRT 1DP disease control rating.
[7] abbreviates: 72 h, 3 Day Curative, read-out: PUCCRT 3DC disease control rating.
Where [8] appears, read: 24 h, 1 Day Protectant, read-out: PHAKPA 1DP disease control rating.
Where [9] appears, read: 72 h, 3 Day Curative, read-out: PHAKPA 3DC disease control rating.

Consider `COc1ccnc(C(=O)N[C@@H](C)C(=O)O[C@@H](C)[C@H](Sc2ccccc2)c2ccc(F)cc2)c1OC(C)=O` [Compound 61], for which the pest or weed control at 121.5 g/ha in assay [1] (setting [4]) was at most 80%; in assay [1] (setting [5]) it was at most 0%; in assay [2] (setting [6]), over 80%; in assay [2] (setting [7]) it was at most 80%.

With `COc1ccnc(C(=O)N[C@@H](C)C(=O)O[C@@H](C)[C@@H](c2ccccc2)[S+]([O-])c2ccc(F)cc2)c1OC(C)=O` (stereo partly drawn) [Compound 62], the pest or weed control at 25 ppm in assay [3] (setting [8]) and in assay [3] (setting [9]) was at most 0% in each case. In addition, the pest or weed control at 121.5 g/ha in assay [1] (setting [4]) was at most 80%; in assay [1] (setting [5]), at most 80%; in assay [2] (setting [6]), at most 0%; in assay [2] (setting [7]), at most 0%.

With `COc1ccnc(C(=O)N[C@@H](C)C(=O)O[C@@H](C)[C@@H](c2ccccc2)S(=O)(=O)c2ccc(F)cc2)c1OC(C)=O` [Compound 64], the pest or weed control at 25 ppm is at most 0% in assay [3] (setting [8]) and at most 80% in assay [3] (setting [9]). Also, the pest or weed control at 121.5 g/ha was at most 80% in assay [1] (setting [4]), at most 80% in assay [1] (setting [5]), at most 80% in assay [2] (setting [6]) and at most 0% in assay [2] (setting [7]).

For the compound `COc1ccnc(C(=O)N[C@@H](C)C(=O)O[C@@H](C)[C@H](Sc2cccc(Cl)c2)c2ccccc2)c1OC(C)=O` [Compound 65], the pest or weed control at 25 ppm in assay [3] (setting [8]) and in assay [3] (setting [9]) was at most 80% each time. Moreover, the pest or weed control at 121.5 g/ha was over 80% in assay [1] (setting [4]), at most 0% in assay [1] (setting [5]), over 80% in assay [2] (setting [6]) and at most 80% in assay [2] (setting [7]).

As for `COc1ccnc(C(=O)N[C@@H](C)C(=O)O[C@@H](C)[C@H](Sc2ccc(C)cc2)c2ccccc2)c1OC(C)=O` [Compound 66], the pest or weed control at 25 ppm in assay [3] (setting [8]) and in assay [3] (setting [9]) was at most 80% throughout. Further, the pest or weed control at 121.5 g/ha in assay [1] (setting [4]) was over 80%; in assay [1] (setting [5]), at most 80%; in assay [2] (setting [6]), at most 80%; in assay [2] (setting [7]) it was at most 80%.

In the case of `COc1ccnc(C(=O)N[C@@H](C)C(=O)O[C@@H](C)[C@H](Sc2ccc(C)cc2C)c2ccccc2)c1OC(C)=O` [Compound 67], the values for the pest or weed control at 25 ppm in assay [3] (setting [8]) and in assay [3] (setting [9]) were at most 80% and at most 0%, respectively. The pest or weed control at 121.5 g/ha is over 80% in assay [1] (setting [4]), over 80% in assay [1] (setting [5]), over 80% in assay [2] (setting [6]) and at most 80% in assay [2] (setting [7]).

Take `COc1ccnc(C(=O)N[C@@H](C)C(=O)O[C@@H](C)[C@H](SCc2ccccc2)c2ccccc2)c1OC(C)=O` [Compound 68]: the pest or weed control at 25 ppm in assay [3] (setting [8]) was over 80%; in assay [3] (setting [9]), at most 80%. Moreover, the pest or weed control at 121.5 g/ha in assay [1] (setting [4]) is over 80%; in assay [1] (setting [5]) it was at most 80%; in assay [2] (setting [6]), over 80%; in assay [2] (setting [7]), over 80%.

For `COc1ccnc(C(=O)N[C@@H](C)C(=O)O[C@@H](C)[C@H](SCC(C)C)c2ccccc2)c1OC(C)=O` [Compound 69], the pest or weed control at 25 ppm in assay [3] (setting [8]) is over 80%; in assay [3] (setting [9]), at most 80%. Moreover, the pest or weed control at 121.5 g/ha in assay [1] (setting [4]) is at most 80%; in assay [1] (setting [5]), at most 0%; in assay [2] (setting [6]), over 80%; in assay [2] (setting [7]), at most 80%.

Take `COc1ccnc(C(=O)N[C@@H](C)C(=O)O[C@@H](C)[C@H](SC(C)C)c2ccccc2)c1OC(C)=O` [Compound 70]: the pest or weed control at 25 ppm in assay [3] (setting [8]) was over 80%; in assay [3] (setting [9]) it was at most 80%. For the same compound, the pest or weed control at 121.5 g/ha was at most 80% in assay [1] (setting [4]), over 80% in assay [1] (setting [5]), over 80% in assay [2] (setting [6]) and at most 80% in assay [2] (setting [7]).

`COc1ccnc(C(=O)N[C@@H](C)C(=O)O[C@@H](C)[C@H](Sc2ccc(C(F)(F)F)cn2)c2ccccc2)c1OC(C)=O` [Compound 71]: the pest or weed control at 25 ppm in assay [3] (setting [8]) and in assay [3] (setting [9]) was at most 80% throughout. Besides, the pest or weed control at 121.5 g/ha in assay [1] (setting [4]) is at most 80%; in assay [1] (setting [5]) it was at most 80%; in assay [2] (setting [6]) it was at most 0%; in assay [2] (setting [7]), at most 80%.

For the compound `COc1ccnc(C(=O)N[C@@H](C)C(=O)O[C@@H](C)[C@@H](c2ccccc2)S(=O)(=O)Cc2ccccc2)c1OC(C)=O` [Compound 72], the pest or weed control at 121.5 g/ha in assay [1] (setting [4]) is at most 80%; in assay [1] (setting [5]), at most 0%; in assay [2] (setting [6]), at most 0%; in assay [2] (setting [7]), at most 0%.

In the case of `COc1ccnc(C(=O)N[C@@H](C)C(=O)O[C@@H](C)[C@@H](c2ccccc2)[S+]([O-])c2ccc(C)cc2C)c1OC(C)=O` (stereo partly drawn) [Compound 73], the pest or weed control at 121.5 g/ha was at most 80% in assay [1] (setting [4]), at most 0% in assay [1] (setting [5]), at most 0% in assay [2] (setting [6]) and at most 0% in assay [2] (setting [7]).

`COc1ccnc(C(=O)N[C@@H](C)C(=O)O[C@@H](C)[C@@H](c2ccccc2)[S+]([O-])Cc2ccccc2)c1OC(C)=O` (stereo partly drawn) [Compound 74]: the pest or weed control at 121.5 g/ha in assay [1] (setting [4]), in assay [1] (setting [5]), in assay [2] (setting [6]) and in assay [2] (setting [7]) was at most 0% throughout.

Consider `COc1ccnc(C(=O)N[C@@H](C)C(=O)O[C@@H](C)[C@H](Sc2ccc(F)cc2)c2ccc(F)cc2C)c1OC(C)=O` [Compound 75], for which the pest or weed control at 121.5 g/ha was over 80% in assay [1] (setting [4]), over 80% in assay [1] (setting [5]), at most 80% in assay [2] (setting [6]) and at most 0% in assay [2] (setting [7]).

`COc1ccnc(C(=O)N[C@@H](C)C(=O)O[C@@H](C)[C@H](Sc2ccc(F)cc2C)c2ccc(F)cc2C)c1OC(C)=O` [Compound 76]: the pest or weed control at 25 ppm in assay [3] (setting [8]) and in assay [3] (setting [9]) was at most 80% each time. Moreover, the pest or weed control at 121.5 g/ha is over 80% in assay [1] (setting [4]), over 80% in assay [1] (setting [5]), at most 80% in assay [2] (setting [6]) and at most 0% in assay [2] (setting [7]).

`COc1ccnc(C(=O)N[C@@H](C)C(=O)O[C@@H](C)[C@H](Sc2ccccc2)c2ccc(C)cc2)c1OC(C)=O` [Compound 77]: the pest or weed control at 25 ppm in assay [3] (setting [8]) and in assay [3] (setting [9]) was at most 80% throughout. Further, the pest or weed control at 121.5 g/ha in assay [1] (setting [4]) is over 80%; in assay [1] (setting [5]) it was at most 80%; in assay [2] (setting [6]), over 80%; in assay [2] (setting [7]), at most 80%.

For `COc1ccnc(C(=O)N[C@@H](C)C(=O)O[C@@H](C)[C@H](Sc2ccccc2)c2ccc(F)cc2C)c1OC(C)=O` [Compound 78], the pest or weed control at 25 ppm was at most 80% in assay [3] (setting [8]) and at most 0% in assay [3] (setting [9]). For the same compound, the pest or weed control at 121.5 g/ha was over 80% in assay [1] (setting [4]), over 80% in assay [1] (setting [5]), at most 80% in assay [2] (setting [6]) and at most 0% in assay [2] (setting [7]).

On to `COc1ccnc(C(=S)N[C@@H](C)C(=O)O[C@@H](C)[C@H](Sc2ccc(F)cc2C)c2ccccc2)c1OC(C)=O` [Compound 83], for which the pest or weed control at 121.5 g/ha was at most 80% in assay [1] (setting [4]), at most 0% in assay [1] (setting [5]), at most 80% in assay [2] (setting [6]) and at most 0% in assay [2] (setting [7]).
